Assay results taken from patent US7553867B2, “Furan or thiophene derivative and medicinal use thereof” (Takeda Pharmaceutical Company Limited, priority 2002, dated 2009).

Row | Compound | melting point [°C]
1 | CCc1oc(-c2ccc(C(F)(F)F)cc2)cc1CCCOc1nn(CC(=O)O)c2ccccc12 [Example 6(100), [3-(3-{2-Ethyl-5-[4-(trifluoromethyl)phenyl]-3-furyl}propoxy)-1H-indazol-1-yl]acetic acid] | 139 to 140
2 | Cc1oc(-c2ccc(C(F)(F)F)cc2)cc1COc1ccc2sc(CC(=O)O)cc2c1 [Example 6(101), [5-({2-Methyl-5-[4-(trifluoromethyl)phenyl]-3-furyl}methoxy)-1-benzothien-2-yl]acetic acid] | 153 to 154
3 | CCc1oc(-c2ccc(C(F)(F)F)cc2)cc1CCCOc1ccc2sc(CC(=O)O)cc2c1 [Example 6(102), [5-(3-{2-Ethyl-5-[4-(trifluoromethyl)phenyl]-3-furyl}propoxy)-1-benzothien-2-yl]acetic acid] | 111 to 112
4 | Cc1oc(-c2ccc(C(F)(F)F)cc2)cc1COc1ccc2sc(CCC(=O)O)cc2c1 [Example 6(103), 3-[5-({2-Methyl-5-[4-(trifluoromethyl)phenyl]-3-furyl}methoxy)-1-benzothien-2-yl]propionic acid] | 187 to 188
5 | Cc1oc(-c2ccc(C(F)(F)F)cc2)cc1CCCCOc1ccc(OC(C)(C)C(=O)O)cc1 [Example 6(104), 2-Methyl-2-[4-(4-{2-methyl-5-[4-(trifluoromethyl)phenyl]-3-furyl}butoxy)phenoxy]propionic acid] | 67 to 69
6 | Cc1oc(-c2ccc(C(F)(F)F)cc2)cc1CCCCOc1ccc(SC(C)(C)C(=O)O)cc1 [Example 6(106), 2-Methyl-2-{[4-(4-{2-methyl-5-[4-(trifluoromethyl)phenyl]-3-furyl}butoxy)phenyl]thio}propionic acid] | 155 to 156
7 | Cc1oc(-c2ccc(C(F)(F)F)cc2)cc1COc1ccc2sc(CSC(C)(C)C(=O)O)cc2c1 [Example 6(107), 2-Methyl-2-({[5-({2-methyl-5-[4-(trifluoromethyl)phenyl]-3-furyl}methoxy)-1-benzothien-2-yl]methyl}thio)propionic acid] | 158 to 159
8 | Cc1oc(-c2cccc(C(F)(F)F)c2)cc1COc1ccc(SC(C)(C)C(=O)O)cc1 [Example 6(108), 2-Methyl-2-{[4-({2-methyl-5-[3-(trifluoromethyl)phenyl]-3-furyl}methoxy)phenyl]thio}propionic acid] | 108 to 109
9 | Cc1oc(-c2ccc(C(F)(F)F)cc2)cc1COc1cccc(CSC(C)(C)C(=O)O)c1 [Example 6(109), 2-Methyl-2-{[3-({2-methyl-5-[4-(trifluoromethyl)phenyl]-3-furyl}methoxy)benzyl]thio}propionic acid] | 148 to 149
10 | COc1ccc(-c2cc(COc3cccc(CSC(C)(C)C(=O)O)c3)c(C)o2)cc1 [Example 6(110), 2-[(3-{[5-(4-Methoxyphenyl)-2-methyl-3-furyl]methoxy}benzyl)thio]-2-methylpropionic acid] | 96 to 97
11 | Cc1oc(-c2ccc(Cl)cc2)cc1COc1cccc(CSC(C)(C)C(=O)O)c1 [Example 6(111), 2-[(3-{[5-(4-Chlorophenyl)-2-methyl-3-furyl]methoxy}benzyl)thio]-2-methylpropionic acid] | 143 to 144
12 | Cc1oc(-c2cccc(F)c2)cc1COc1cccc(CSC(C)(C)C(=O)O)c1 [Example 6(112), 2-[(3-{[5-(3-Fluorophenyl)-2-methyl-3-furyl]methoxy}benzyl)thio]-2-methylpropionic acid] | 116 to 117
13 | Cc1oc(-c2ccc(Cl)cc2)cc1COc1ccc(SC(C)(C)C(=O)O)cc1 [Example 6(114), 2-[(4-{[5-(4-Chlorophenyl)-2-methyl-3-furyl]methoxy}phenyl)thio]-2-methylpropionic acid] | 130 to 131
14 | Cc1oc(-c2cccc(F)c2)cc1COc1ccc(SC(C)(C)C(=O)O)cc1 [Example 6(115), 2-[(4-{[5-(3-Fluorophenyl)-2-methyl-3-furyl]methoxy}phenyl)thio]-2-methylpropionic acid] | 146 to 147
15 | Cc1oc(-c2ccccc2C(F)(F)F)cc1COc1ccc(SC(C)(C)C(=O)O)cc1 [Example 6(117), 2-Methyl-2-{[4-({2-methyl-5-[2-(trifluoromethyl)phenyl]-3-furyl}methoxy)phenyl]thio}propionic acid] | 115 to 116
16 | Cc1oc(-c2ccc(C(F)(F)F)cc2)cc1COc1cccc(SC(C)(C)C(=O)O)c1 [Example 6(118), 2-Methyl-2-{[3-({2-methyl-5-[4-(trifluoromethyl)phenyl]-3-furyl}methoxy)phenyl]thio}propionic acid] | 127 to 128
17 | Cc1oc(-c2ccccc2)cc1COc1cccc(CSC(C)(C)C(=O)O)c1 [Example 6(119), 2-Methyl-2-({3-[(2-methyl-5-phenyl-3-furyl)methoxy]benzyl}thio)propionic acid] | 113 to 114
18 | Cc1ccc(-c2cc(COc3cccc(CSC(C)(C)C(=O)O)c3)c(C)o2)cc1 [Example 6(120), 2-Methyl-2-[(3-{[2-methyl-5-(4-methylphenyl)-3-furyl]methoxy}benzyl)thio]propionic acid] | 121 to 122
19 | Cc1oc(-c2ccc(C(F)(F)F)cc2)cc1CCCOc1ccc(SC(C)(C)C(=O)O)cc1 [Example 6(122), 2-Methyl-2-{[4-(3-{2-methyl-5-[4-(trifluoromethyl)phenyl]-3-furyl}propoxy)phenyl]thio}propionic acid] | 127 to 128
20 | Cc1oc(-c2ccc(C(F)(F)F)cc2)cc1COc1ccc(CCC(=O)O)cc1 [Example 6(123), 3-[4-({2-Methyl-5-[4-(trifluoromethyl)phenyl]-3-furyl}methoxy)phenyl]propionic acid] | 182 to 183
21 | Cc1oc(-c2ccc(C(F)(F)F)cc2)cc1COc1cccc(-c2cccc(C(=O)O)c2)c1 [Example 6(125), 3′-({2-Methyl-5-[4-(trifluoromethyl)phenyl]-3-furyl}methoxy)-1,1′-biphenyl-3-carboxylic acid] | 178 to 179
22 | Cc1oc(-c2ccc(C(F)(F)F)cc2)cc1COc1cccc(-c2cccc(CC(=O)O)c2)c1 [Example 6(126), [3′-({2-Methyl-5-[4-(trifluoromethyl)phenyl]-3-furyl}methoxy)-1,1′-biphenyl-3-yl]acetic acid] | 128 to 129
23 | Cc1oc(-c2ccc(C(F)(F)F)cc2)cc1COc1cccc(CSC(C)C(=O)O)c1 (stereo not shown) [Example 9(1), 2-{[3-({2-Methyl-5-[4-(trifluoromethyl)phenyl]-3-furyl}methoxy)-benzyl]thio}propionic acid] | 82 to 83
24 | Cc1oc(-c2ccc(C(F)(F)F)cc2)cc1COc1cccc(CSC2(C(=O)O)CCC2)c1 [Example 9(3), 1-{[3-({2-Methyl-5-[4-(trifluoromethyl)phenyl]-3-furyl}methoxy)benzyl]thio}cyclobutanecarboxylic acid] | 121 to 122
25 | CCCC(SCc1cccc(OCc2cc(-c3ccc(C(F)(F)F)cc3)oc2C)c1)C(=O)O (stereo not shown) [Example 9(4), 2-{[3-({2-Methyl-5-[4-(trifluoromethyl)phenyl]-3-furyl}methoxy)benzyl]thio}pentanoic acid] | 61 to 62
